Assay results published in patent US5387578A (priority 1990, dated 1995).

Tests used:
[1] = test system: LoVo-Doxo-resistant (LoVo/DX) cells; assay type: cell-based; conditions: human, lovo/dx vs lovo cells, 240 min
[2] = Release of 13b from conjugates in acetate buffer at 37° C.; assay type: physicochemical; conditions: pH 5, 37° C., ionic strength 0.05M, HPLC
Procedure: In Table 4 are reported t50 % of release of 3'deamino-3'[2(S) -methoxy-4-morpholinyl]doxorubicin (13b) from the conjugates at […] (acetate buffer) at 37° C.
Release of 13b from conjugates at pH 5 and
temperature 37° C. in acetate buffer^(7).
^(6) Time requests for the release of 50% of free drug 13b. Determine
by HPLC using a calibration curve of compound 13b.
^(7) Ionic strenght 0.05M.

Compound	R.I. = Resistance Index = (IC50 LoVo/DX)/(IC50 LoVo) [1]	t50% (time for the release of 50% of free drug 13b) [2]
COc1cccc2c1C(=O)c1c(O)c3c(c(O)c1C2=O)C[C@@](O)(C(=O)CO)C[C@@H]3O[C@H]1C[C@H](N)[C@H](O)[C@H](C)O1 [Doxorubicin]	36.3	
copolymer of 3-methacryloylamino-2-hydroxypropane and 14-O-{1-[4-(6-methacryloylaminocaproyl)piperazinlyl]-carbonylmethyloxy-cyclohexyl}-3'-deamino-3'[2(S)-methoxy-4-morpholinyl]doxorubicin [1^vii]		20 h
COc1cccc2c1C(=O)c1c(O)c3c(c(O)c1C2=O)C[C@@](O)(C(=O)CO)C[C@@H]3O[C@H]1C[C@H](N2CCO[C@H](OC)C2)[C@H](O)[C@H](C)O1 [Compound 13b]	2	
conjugate of Poly(Glu-Na, Ala.Tyr) (1:1:1) and 14-O-(1-piperazinocarbonylmethyloxy-cyclohexyl)-3'-deamino[2(S)-methoxy-4- morpholinyl]doxorubicin [1^viii]		3.5 h
